Experiments:
Factor Xa = target: T1, Factor Xa (Homo sapiens, UniProt P00742); assay: In vitro inhibition of purified Factor Xa (hydrolysis of peptide p-nitroanilide substrate); format: biochemical; conditions: Bz-Ile-Glu-Gly-Arg-pNa substrate; 10 nM Factor Xa; pH 7.5, 37° C.
T1 construct: purchased Enzyme Research Laboratories Inc
Experimental: (§1) All assays are based on the ability of the test compound to inhibit the hydrolysis of a peptide p-nitroanilide substrate. In a typical experiment, substrate is prepared in DMSO, and diluted into an assay buffer consisting of 50 mM HEPES, 130 mM NaCl, pH 7.5. The final concentration for each of the substrates is listed below. All substrate concentrations are at least 10-fold lower than Km to insure inhibition is competitive. Test compounds are prepared as a 1 mg/ml solution in DMSO, and 3 additional 10-fold dilutions in DMSO are prepared. Enzyme solutions are prepared at the concentrations listed below in assay buffer.
In a typical IC50 determination, into each well of a 96 well plate is pipetted 280 uL of substrate solution, 10 μL of inhibitor solution, and the plate allowed to thermally equilibrate at 37° C. in a Molecular Devices Plate Reader for >10 minutes. Reactions were initiated by the addition of a 20 μL aliquot of enzyme, and the absorbance increase at 405 nm is recorded for 15 minutes. […] The ratio of the velocity (rate of the change in absorbance as a function of time) for a sample containing no inhibitor is divided by the velocity of a sample containing inhibitor, and is plotted as a function of inhibitor concentration. […]
Factor Xa activity was assessed as the ability to hydrolyse the substrate Bz-Ile-Glu-Gly-Arg-pNa (obtained from Sigma Chemical Company, St Louis, Mo.). […]

[1] = target: T2, Purified human α-thrombin (Homo sapiens, UniProt P00734); assay: In vitro inhibition of purified thrombin (hydrolysis of peptide p-nitroanilide substrate); format: biochemical
T2 construct: Purified human α-thrombin; purchased Enzyme Research Laboratories Inc
Experimental: as §1
In a typical IC50 determination, into each well of a 96 well plate is pipetted 280 uL of substrate solution, 10 μL of inhibitor solution, and the plate allowed to thermally equilibrate at 37° C. in a Molecular Devices Plate Reader for >10 minutes. Reactions were initiated by the addition of a 20 μL aliquot of enzyme, and the absorbance increase at 405 nm is recorded for 15 minutes. Data corresponding to less than 10% of the total substrate hydrolysis was used in the calculations. The ratio of the velocity (rate of the change in absorbance as a function of time) for a sample containing no inhibitor is divided by the velocity of a sample containing inhibitor, and is plotted as a function of inhibitor concentration. […]

T1 sequence (P00742 235-488 limits assumed): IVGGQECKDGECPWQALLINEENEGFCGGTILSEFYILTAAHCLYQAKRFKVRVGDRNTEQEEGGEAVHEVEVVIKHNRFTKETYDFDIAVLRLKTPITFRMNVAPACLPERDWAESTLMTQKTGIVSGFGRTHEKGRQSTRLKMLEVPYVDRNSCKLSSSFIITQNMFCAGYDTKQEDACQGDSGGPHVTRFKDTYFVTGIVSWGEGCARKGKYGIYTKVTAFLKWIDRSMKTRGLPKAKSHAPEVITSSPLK
T1 sequence (P00742 41-179 partner limits assumed): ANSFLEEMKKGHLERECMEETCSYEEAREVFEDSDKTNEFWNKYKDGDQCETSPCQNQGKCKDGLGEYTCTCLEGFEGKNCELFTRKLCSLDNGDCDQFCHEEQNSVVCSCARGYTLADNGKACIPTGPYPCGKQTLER

IC50 (Factor Xa): 59 µM
IC50 ([1]; Bz-Phe-Val-Arg-pNa substrate, 36 nM thrombin, pH 7.5, 37° C.): 0.8 µM
Compound: O=C(O)c1cccc(N(S(=O)(=O)c2ccc3ccccc3c2)S(=O)(=O)c2ccc3ccccc3c2)c1 [Example 4, 3-[Bis[(2-naphthalenyl)sulfonyl]amino]benzoic Acid]
inhibition of thrombin, potency and selectivity (in words) ([1]; conclusion from Table 1, selectivity versus other serine proteases such as plasmin): selective and highly potent inhibitors of thrombin

From patent US5559150A, “N,N-disulfonylated aminobenzene carboxlic acids and the use thereof as thrombin inhibitors” (3-Dimensional Pharmaceuticals, Inc., priority 1995, dated 1996)
